Measurements from the NIST ThermoML archive (doi:10.1016/j.fluid.2018.05.023).
± gives the expanded uncertainty stated by the source.

Tests used:
[1] = Crystal; DTA
[2] = Molar enthalpy of transition or fusion; details: Crystal; DSC

Normal melting temperature [1]: 92.00 ± 1.1 °C
Molar enthalpy of transition or fusion [2]: 2.36 ± 0.112 kcal/mol
SMILES: Cn1cc([N+](=O)[O-])cn1 [1-methyl-4-nitropyrazole]
